Experimental data reported in patent US20100189798A1, “CONTROL OF ERWINIA AMYLOVORA WITH VINYLGLYCINES AND BACTERIA THAT PRODUCE VINYLGLYCINES” (The State of Oregon acting by and through the State Board …, priority 2009, published 2010).

Assays:
[1] = test system: Erwinia amylovora; experiment: Erwinia bioassay: culture filtrates or test solutions in agar well, zone of inhibition; type: cell-based; details: 300 μL per well, 28° C., 48 hours
Protocol: Assays of Culture Filtrates, Live Bacteria, and FVG-Analogs for Antibiosis Activity against Erwinia amylovora and Other Bacterial Species and Strains: The potential antibiosis activities of various P. fluorescens isolates, their culture filtrates, and the FVG analogs prepared as described above were tested against Erwinia amylovora and a number of other bacterial species and strains listed in Table 4. For this purpose, cryovial stocks of the test organisms (including P. fluorescens lines from the stocks described above) were prepared from bacterial cultures grown in LB liquid medium. For this specific experimental purpose, aliquots of these cultures were stored in cryovials at −80° C. in LB medium containing glycerol at a final concentration of 15% (v/v).
Bacterial lawns of test organisms were prepared from cells grown by inoculating 10 μL of the 15% glycerol stocks into 5 mL of liquid LB Medium. The cells were allowed to multiply overnight at 28° C. with shaking (200 rpm). The resulting bacterial suspension was adjusted with water to an optical density of 0.2 at 600 nm (Spectronic® 20 Spectrophotometer; Milton Roy Co., Rochester N.Y.). 300 μL aliquots of the diluted suspension were spread onto the agar surfaces of Petri plates (100×15 mm) containing […] of 925 Minimal Medium (prepared and amended as described below). […]

[2] = as described in U.S. patent application Ser. No. 12/567,590; cited from earlier work
[3] = test system: seeds of grassy weeds; details: as disclosed in U.S. patent application Ser. No. 12/567,590; cited from earlier work

Structure (SMILES): NOCC(=O)O [AOA, 2-aminooxyacetic acid]
- Growth inhibition of E. amylovora (in words) ([1]; AOA solution, pH 6.4): effective growth inhibitor

Structure (SMILES): NCCOC=CC(N)C(=O)O (stereo not shown) [AVG, 2-amino-4-aminoethoxybut-3-enoic acid]
- Inhibitory effect on growth of E. amylovora (in words) ([1]; commercial sample of pure AVG-HCl, 3 mM): inhibitory effect of AVG on E. amylovora has subsequently been confirmed

Structure (SMILES): NC(C=CONC=O)C(=O)O (stereo not shown) [FVG, 2-amino-4-formylaminooxybut-3-enoic acid]
- Solubility in organic solvents (in words) [2]: insoluble or sparingly soluble in organic solvents
- Germination arrest in the seeds of grassy weeds (in words) [3]: ability to produce germination arrest
